Experimental data reported in patent US6440903B1, “Substituted 2,4-diamino-1,3,5-triazines as herbicides” (Bayer Aktiengesellschaft, priority 1996, dated 2002).

Tests used:
Type in all cases: in vivo
Chenopodium = test: Post-emergence test; settings: greenhouse, scored after three weeks; for pest or weed control at 250 g/ha / % damage, Chenopodium: 250 g of ai./ha; for pest or weed control at 500 g/ha: 500 g of ai./ha
Description: (§1) Post-emergence Test Solvent: 5 parts by weight of acetone Emulsifier: 1 part by weight of alkylaryl polyglycol ether To produce a suitable preparation of active compound, 1 part by weight of active compound is mixed with the stated amount of solvent, the stated amount of emulsifier is added and the concentrate is diluted with water to the desired concentration. Test plants which have a height of 5-15 cm are sprayed with the preparation of active compound such that the particular amounts of active compounds desired are applied per unit area. The concentration of the spray liquor is chosen so that the particular amounts of active compound desired are applied in 1000 l of water/ha. After three weeks, the degree of damage to the plants is scored visually in % damage in comparison to the untreated control. The Figures Denote: 0%=no effect (like untreated control) 100%=total destruction

Setaria = test: Post-emergence test; settings: greenhouse, scored after three weeks; for pest or weed control at 250 g/ha / pest or weed control at 500 g/ha: Setaria, 504 h, read-out: % damage, Setaria; for pest or weed control at 250 g/ha / % damage, Setaria: 250 g of ai./ha; for pest or weed control at 500 g/ha: 500 g of ai./ha
Description: as §1

Viola = test: Post-emergence test; settings: greenhouse, scored after three weeks; for pest or weed control at 250 g/ha / % damage, Viola: 250 g of ai./ha; for pest or weed control at 500 g/ha: 500 g of ai./ha
Description: as §1

Polygonum = test: Post-emergence test; settings: greenhouse, scored after three weeks; for pest or weed control at 250 g/ha / % damage, Polygonum: 250 g of ai./ha; for pest or weed control at 500 g/ha: 500 g of ai./ha
Description: as §1

Amaranthus = test: Post-emergence test; settings: greenhouse, scored after three weeks; for pest or weed control at 250 g/ha / % damage, Amaranthus: 250 g of ai./ha; for pest or weed control at 500 g/ha: 500 g of ai./ha
Description: as §1

Wheat = test: Post-emergence test; settings: greenhouse, scored after three weeks; for plant injury at 250 g/ha / % damage, Wheat: 250 g of ai./ha
Description: as §1

weeds = test: Post-emergence test (summary in text); settings: result in words
Description: Solvent: 5 parts by weight of acetone
Emulsifier: 1 part by weight of alkylaryl polyglycol ether
To produce a suitable preparation of active compound, 1 part by weight of active compound is mixed with the stated amount of solvent, the stated amount of emulsifier is added and the concentrate is diluted with water to the desired concentration.
Test plants which have a height of 5-15 cm are sprayed with the preparation of active compound such that the particular amounts of active compounds desired are applied per unit area. The concentration of the spray liquor is chosen so that the particular amounts of active compound desired are applied in 1000 l of water/ha.
After three weeks, the degree of damage to the plants is scored visually in % damage in comparison to the untreated control.
0%=no effect (like untreated control)

[1] = Chenopodium, 504 h, read-out: % damage, Chenopodium
[2] = 504 h, read-out: % damage, Viola
[3] = Polygonum, 504 h, read-out: % damage, Polygonum
[4] = Amaranthus, 504 h, read-out: % damage, Amaranthus
[5] = Triticum aestivum, 504 h, read-out: % damage, Wheat

`CC(Nc1nc(N)nc(C(F)C(F)(F)F)n1)c1ccc(Cl)cc1` (stereo not drawn) [drawing 117] was tested. Which pest or weed control at 250 g/ha (Chenopodium; [1]) did it give?
The pest or weed control at 250 g/ha was 100%.

And the pest or weed control at 250 g/ha (Setaria)?
Its pest or weed control at 250 g/ha is 95%.

What about the pest or weed control at 250 g/ha (Viola; [2]) of the same compound?
Its pest or weed control at 250 g/ha is 100%.

What about the pest or weed control at 250 g/ha (Polygonum; [3]) of the same compound?
The pest or weed control at 250 g/ha was 100%.

What about the pest or weed control at 250 g/ha (Amaranthus; [4]) of the same compound?
Its pest or weed control at 250 g/ha is 100%.

What about the plant injury at 250 g/ha (Wheat; [5]) of the same compound?
Its plant injury at 250 g/ha is 10%.

Which activity against weeds (weeds) does the source give for `CC(Cl)c1nc(N)nc(NC(C)c2ccc(Cl)cc2)n1` (stereo not drawn) [Example 96] here?
The activity against weeds was “strong activity”.

`CC(Cl)c1nc(N)nc(NC(C)c2ccc(Cl)cc2)n1` (stereo not drawn) [Example 171] was tested. Which activity against weeds (weeds) did it give?
The activity against weeds was “strong activity”.

What does the source list for `CC(Nc1nc(N)nc(C(F)C(F)(F)F)n1)c1ccc(Cl)cc1` (stereo not drawn) [drawing 124]?
% damage, Chenopodium (Chenopodium): 100%; % damage, Setaria (Setaria): 90%; % damage, Viola (Viola): 95%; % damage, Polygonum (Polygonum): 95%; % damage, Amaranthus (Amaranthus): 100%; % damage, Wheat (Wheat): 10%

For `COc1ccc(C(C)Nc2nc(N)nc(C(F)(F)F)n2)cc1` (stereo not drawn) [Example 79], which activity against weeds (weeds) is on record?
The activity against weeds was “strong activity”.

For `CC(Nc1nc(N)nc(C(F)C(F)(F)F)n1)c1ccc(Cl)cc1` (stereo not drawn) [drawing 128], which “% damage, Chenopodium” value (Chenopodium) is on record?
The value was 100%.

What about the “% damage, Setaria” value (Setaria) of the same compound?
Its value is 90%.

What about the “% damage, Viola” value (Viola) of the same compound?
The value was 100%.

And the “% damage, Polygonum” value (Polygonum)?
The value was 100%.

And the “% damage, Amaranthus” value (Amaranthus)?
The value was 100%.

And the “% damage, Wheat” value (Wheat)?
Its value is 10%.

With `COCc1nc(N)nc(NC(C)c2ccc(Cl)cc2)n1` (stereo not drawn) [Example 170] as the compound, how does the activity against weeds (weeds) read?
The activity against weeds was “strong activity”.

What does the source list for `CC(Cl)c1nc(N)nc(NC(C)c2ccc(Cl)cc2)n1` (stereo not drawn) [drawing 131]?
% damage, Chenopodium (Chenopodium): 100%; % damage, Setaria (Setaria): 90%; % damage, Viola (Viola): 100%; % damage, Polygonum (Polygonum): 100%; % damage, Amaranthus (Amaranthus): 100%; % damage, Wheat (Wheat): 10%

Which activity against weeds (weeds) does the source give for `CCc1nc(N)nc(NC(C)c2ccc(Cl)cc2)n1` (stereo not drawn) [Example 91] here?
Its activity against weeds is “strong activity”.

With `CCc1nc(N)nc(NC(C)c2ccc(Cl)cc2)n1` (stereo not drawn) [drawing 116] as the compound, how does the pest or weed control at 250 g/ha (Chenopodium; [1]) read?
The pest or weed control at 250 g/ha was 100%.

And the pest or weed control at 250 g/ha (Setaria)?
Its pest or weed control at 250 g/ha is 100%.

What about the pest or weed control at 250 g/ha (Viola; [2]) of the same compound?
Its pest or weed control at 250 g/ha is 100%.

And the pest or weed control at 250 g/ha (Polygonum; [3])?
Its pest or weed control at 250 g/ha is 100%.

And the pest or weed control at 250 g/ha (Amaranthus; [4])?
Its pest or weed control at 250 g/ha is 100%.

What about the plant injury at 250 g/ha (Wheat; [5]) of the same compound?
The plant injury at 250 g/ha was 10%.

How did the activity against weeds (weeds) turn out when `CCC(Nc1nc(N)nc(C(F)(F)F)n1)c1ccc(Cl)cc1` (stereo not drawn) [Example 86] was run?
The activity against weeds was “strong activity”.

Which pest or weed control at 500 g/ha (Chenopodium; [1]) does the source give for `CC(Nc1nc(N)nc(C(C)(Cl)Cl)n1)c1ccc(Cl)cc1` (stereo not drawn) [drawing 126] here?
The pest or weed control at 500 g/ha was 100%.

What about the pest or weed control at 500 g/ha (Setaria) of the same compound?
The pest or weed control at 500 g/ha was 90%.

And the pest or weed control at 500 g/ha (Viola; [2])?
The pest or weed control at 500 g/ha was 100%.

And the pest or weed control at 500 g/ha (Polygonum; [3])?
Its pest or weed control at 500 g/ha is 100%.

What about the pest or weed control at 500 g/ha (Amaranthus; [4]) of the same compound?
The pest or weed control at 500 g/ha was 100%.

What about the plant injury at 500 g/ha (Wheat; Triticum aestivum, 504 h, 500 g of ai./ha, read-out: % damage, Wheat) of the same compound?
The plant injury at 500 g/ha was 10%.

For `COCc1nc(N)nc(NC(C)c2ccc(Cl)cc2)n1` (stereo not drawn) [drawing 130], which “% damage, Chenopodium” value (Chenopodium) is on record?
Its value is 100%.

What about the “% damage, Viola” value (Viola) of the same compound?
Its value is 100%.

What about the “% damage, Polygonum” value (Polygonum) of the same compound?
Its value is 100%.

What about the “% damage, Amaranthus” value (Amaranthus) of the same compound?
Its value is 100%.

What about the “% damage, Wheat” value (Wheat) of the same compound?
The value was 10%.

How did the activity against weeds (weeds) turn out when `CC(Nc1nc(N)nc(C(Cl)Cl)n1)c1ccc(Cl)cc1` (stereo not drawn) [Example 94] was run?
Its activity against weeds is “strong activity”.

`CCC(Nc1nc(N)nc(C(F)(F)F)n1)c1ccc(Cl)cc1` (stereo not drawn) [Example 87] was tested. Which activity against weeds (weeds) did it give?
Its activity against weeds is “strong activity”.

With `CCC(Nc1nc(N)nc(C(F)(F)F)n1)c1ccc(Cl)cc1` (stereo not drawn) [drawing 139] as the compound, how does the pest or weed control at 1000 g/ha (Chenopodium; Chenopodium, 504 h, 1000 g of ai./ha, read-out: % damage, Chenopodium) read?
The pest or weed control at 1000 g/ha was 100%.

And the pest or weed control at 1000 g/ha (Viola; 504 h, 1000 g of ai./ha, read-out: % damage, Viola)?
Its pest or weed control at 1000 g/ha is 100%.

What about the pest or weed control at 1000 g/ha (Polygonum; Polygonum, 504 h, 1000 g of ai./ha, read-out: % damage, Polygonum) of the same compound?
Its pest or weed control at 1000 g/ha is 100%.

And the pest or weed control at 1000 g/ha (Amaranthus; Amaranthus, 504 h, 1000 g of ai./ha, read-out: % damage, Amaranthus)?
Its pest or weed control at 1000 g/ha is 100%.

And the plant injury at 1000 g/ha (Wheat; Triticum aestivum, 504 h, 1000 g of ai./ha, read-out: % damage, Wheat)?
The plant injury at 1000 g/ha was 10%.

With `CCc1nc(N)nc(NC(C)c2ccc(Cl)cc2)n1` (stereo not drawn) [drawing 123] as the compound, how does the pest or weed control at 500 g/ha (Chenopodium; [1]) read?
The pest or weed control at 500 g/ha was 100%.

And the pest or weed control at 500 g/ha (Setaria)?
The pest or weed control at 500 g/ha was 95%.

And the pest or weed control at 500 g/ha (Viola; [2])?
Its pest or weed control at 500 g/ha is 100%.

And the pest or weed control at 500 g/ha (Polygonum; [3])?
Its pest or weed control at 500 g/ha is 100%.

And the pest or weed control at 500 g/ha (Amaranthus; [4])?
The pest or weed control at 500 g/ha was 100%.

How did the activity against weeds (weeds) turn out when `CCc1nc(N)nc(NC(C)c2ccc(Cl)cc2)n1` (stereo not drawn) [Example 153] was run?
The activity against weeds was “strong activity”.
